Like-named read-outs stand apart in the source and are kept apart here.
System: Peripheral human blood mononuclear cells PBMCs
Conditions: for Cytokine Profile: after 7 days
Method: Peripheral human blood mononuclear cells PBMCs, which is a collection of white blood cells comprising about 40% T-cells, were stressed by contact with aqueous solutions of hydrogen peroxide, of various concentrations, for 20 minutes. Their immediate survival was measured, along with their immediate phytohaemagglutinin (PHA) response. Then their survival after 24 hours was measured, followed by their PHA response (tritiated thymidine uptake following mitogenic stimulation with PHA) and cytokine profile after 7 days.

OO [Example H2O2, hydrogen peroxide]
24 hr survival % (100 μmole/L H2O2, 20 minutes): 100%
Immediate PHA response (100 μmole/L H2O2, 20 minutes): 2000
Immediate survival % (100 μmole/L H2O2, 20 minutes): 80-90%
Cytokine Profile (100 μmole/L H2O2, 20 minutes): IFN↓
24 hr survival % (300 μmole/L H2O2, 20 minutes): 50%
Immediate PHA response (300 μmole/L H2O2, 20 minutes): 2000
Immediate survival % (300 μmole/L H2O2, 20 minutes): 80-90%
Cytokine Profile (300 μmole/L H2O2, 20 minutes): IFN↓
24 hr survival % (1 mmole/L H2O2, 20 minutes): 40%
Immediate PHA response (1 mmole/L H2O2, 20 minutes): 400
Immediate survival % (1 mmole/L H2O2, 20 minutes): 80-90%
Cytokine Profile (1 mmole/L H2O2, 20 minutes): IFN↓
24 hr survival % (3 mmole/L H2O2, 20 minutes): 40%
Immediate PHA response (3 mmole/L H2O2, 20 minutes): 400
Immediate survival % (3 mmole/L H2O2, 20 minutes): 80-90%
Cytokine Profile (3 mmole/L H2O2, 20 minutes): IFN↓

Source: patent US20010028879A1, “Inhibition of graft versus host disease” (priority 1998, published 2001)
